Test results: US20170105969A1, “CENICRIVIROC FOR THE TREATMENT OF HIV-2 INFECTION” (Tobira Therapeutics, Inc., priority 2014, published 2017)
Marks after values point to notes of the source that are not given here.

Assays:
HIV = test: Ex vivo intracellular HIV DNA (qPCR) in PBMCs of Study 202 subjects; settings: Week 24
Protocol: Early (strong-stop) and late (full-length) reverse transcript levels were measured by qPCR. […] P24 and viral load levels were measured by ELISA and qRT-PCR after 4 hours.

CCR3 = target: T1, CCR3 (Homo sapiens, UniProt P51677); test: Ligand binding to CCR3
T1 sequence (P51677 1-355): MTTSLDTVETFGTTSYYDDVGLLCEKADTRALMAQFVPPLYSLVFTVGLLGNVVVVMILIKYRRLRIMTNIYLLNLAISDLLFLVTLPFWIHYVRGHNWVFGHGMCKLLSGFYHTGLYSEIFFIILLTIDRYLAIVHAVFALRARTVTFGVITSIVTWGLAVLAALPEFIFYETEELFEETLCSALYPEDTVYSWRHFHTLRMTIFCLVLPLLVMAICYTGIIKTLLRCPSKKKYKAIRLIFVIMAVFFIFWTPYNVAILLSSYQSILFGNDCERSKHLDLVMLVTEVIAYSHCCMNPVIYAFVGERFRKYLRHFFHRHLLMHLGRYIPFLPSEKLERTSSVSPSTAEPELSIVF

CCR4 = target: T2, CCR4 (Homo sapiens, UniProt P51679); test: Ligand binding to CCR4
T2 sequence (P51679 1-360): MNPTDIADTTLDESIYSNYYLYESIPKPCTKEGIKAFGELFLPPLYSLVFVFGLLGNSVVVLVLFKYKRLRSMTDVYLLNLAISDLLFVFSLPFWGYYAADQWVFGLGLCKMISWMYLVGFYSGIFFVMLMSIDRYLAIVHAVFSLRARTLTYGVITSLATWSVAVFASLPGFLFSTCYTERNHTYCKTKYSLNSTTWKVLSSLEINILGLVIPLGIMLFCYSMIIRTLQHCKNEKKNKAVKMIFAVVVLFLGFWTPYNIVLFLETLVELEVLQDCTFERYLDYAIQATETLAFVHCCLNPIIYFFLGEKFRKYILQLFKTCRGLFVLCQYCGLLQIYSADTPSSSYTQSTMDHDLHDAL

CCR7 = target: T3, CCR7 (Homo sapiens, UniProt P32248); test: Ligand binding to CCR7
T3 sequence (P32248 25-378): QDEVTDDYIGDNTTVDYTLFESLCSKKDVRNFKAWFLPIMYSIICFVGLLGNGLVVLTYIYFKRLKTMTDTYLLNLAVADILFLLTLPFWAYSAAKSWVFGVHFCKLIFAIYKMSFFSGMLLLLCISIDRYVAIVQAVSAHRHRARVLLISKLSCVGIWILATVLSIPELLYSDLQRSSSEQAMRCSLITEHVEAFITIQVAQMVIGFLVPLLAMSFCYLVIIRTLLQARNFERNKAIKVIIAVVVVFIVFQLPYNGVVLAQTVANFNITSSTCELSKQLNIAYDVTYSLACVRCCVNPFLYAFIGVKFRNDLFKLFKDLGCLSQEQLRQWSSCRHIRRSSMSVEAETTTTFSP

CCR5-tropic HIV-1 = test: Study 201: plasma HIV-1 RNA over 10 days of CVC monotherapy; type: in vivo, human; settings: for subjects who achieved HIV-1 RNA levels <400 copies/mL: over the entire study; for HIV-1 RNA, LS mean (SEM) change from Baseline / HIV-1 RNA, Median change from Baseline: Day 11
Protocol: (§1) Subjects were antiretroviral treatment experienced, CCR5 antagonist-naïve, with HIV-1 RNA levels of at least 5000 copies/mL and CD4+ cell counts of at least 250 cells/mm^3. Subjects with HIV-2, hepatitis B virus, or hepatitis C virus co-infection or dual/mixed-tropic HIV-1 were ineligible. Other than their HIV-1 infection, subjects were generally healthy.
(§2) In this study, all dose groups received the original formulation (DP3_25), except the 100 mg dose group which received an alternative formulation (DP4_100). […] These subjects were excluded from the efficacy, PK, and PK/PD data, but included in the baseline and safety data. In this study, safety and tolerability were assessed by monitoring AEs, vital signs, ECGs, clinical laboratory values from blood and urine, and physical examinations. Data from all subjects on placebo were pooled for the analyses.

MCP-1 = test: Study 201: inflammatory markers MCP-1, hs-CRP, IL-6; type: in vivo, human
Description: Exploratory efficacy endpoints included changes in the inflammatory markers MCP-1, hs-CRP, and IL-6.
as §1

[1] = Study 201: safety and tolerability (adverse events); type: in vivo, human
Protocol: as §1, §2

HIV-1 = test: Study 202: virologic response (plasma HIV-1 RNA <50 copies/mL), Snapshot algorithm, ITT; type: in vivo, human
[2] = among subjects on CVC presenting with a AE (n=30)

With `CCCCOCCOc1ccc(-c2ccc3c(c2)/C=C(/C(=O)Nc2ccc([S@@+]([O-])Cc4cncn4CCC)cc2)CCCN3CC(C)C)cc1` [CVC, (S)-8-[4-(2-Butoxyethoxy)phenyl]-1-isobutyl-N-(4-{[(1-propyl-1H-imidazol-5-yl)methyl]sulfinyl}phenyl)-1,2,3,4-tetrahydro-1-benzazocine-5-carboxamide] the “Strong-stop HIV DNA decline (marker of HIV entry)” value (HIV; CVC 100 mg arm) was 51%, the “Strong-stop HIV DNA decline (marker of HIV entry)” value (HIV; CVC 200 mg arm) was 37% and the “inhibition of ligand binding (in words)” value (CCR3) was “weakly inhibited”. For the same compound, the “inhibition of ligand binding (in words)” value (CCR4) was “weakly inhibited”, the “inhibition of ligand binding (in words)” value (CCR7) was “did not inhibit” and the “HIV-1 RNA, Baseline LS mean (SEM)” value (CCR5-tropic HIV-1; 25 mg cohort, Baseline) was 4.46 (0.18) log10 copies/mL. For the same compound, the “subjects who achieved HIV-1 RNA levels <400 copies/mL” value (CCR5-tropic HIV-1; 25 mg dose group) was 1, the “HIV-1 RNA, Nadir values, Median change from Baseline” value (CCR5-tropic HIV-1; 25 mg once daily) was −0.7 log10 copies/mL and the “Median days to nadir” value (CCR5-tropic HIV-1; 25 mg once daily) was 10.0 days. The “HIV-1 RNA, LS mean (SEM) change from Baseline” value (from here on “HIV-1 RNA, LS mean (SEM) change”) (CCR5-tropic HIV-1; 25 mg once daily) was −0.64 (0.14) log10 copies/mL, the “HIV-1 RNA, Median change from Baseline” value (CCR5-tropic HIV-1; 25 mg once daily) was −0.5 log10 copies/mL and the “HIV-1 RNA, Baseline LS mean (SEM)” value (CCR5-tropic HIV-1; 50 mg cohort, Baseline) was 4.33 (0.21) log10 copies/mL. For the same compound, the “subjects who achieved HIV-1 RNA levels <400 copies/mL” value (CCR5-tropic HIV-1; 50 mg dose group) was 2, the “HIV-1 RNA, Nadir values, Median change from Baseline” value (CCR5-tropic HIV-1; 50 mg once daily) was −1.6 log10 copies/mL and the “Median days to nadir” value (CCR5-tropic HIV-1; 50 mg once daily) was 11.0 days. The “HIV-1 RNA, LS mean (SEM) change” value (CCR5-tropic HIV-1; 50 mg once daily) was −1.13 (0.16) log10 copies/mL, the “HIV-1 RNA, Median change from Baseline” value (CCR5-tropic HIV-1; 50 mg once daily) was −1.3 log10 copies/mL and the “HIV-1 RNA, Baseline LS mean (SEM)” value (CCR5-tropic HIV-1; 75 mg cohort, Baseline) was 4.65 (0.19) log10 copies/mL. For the same compound, the “HIV-1 RNA, Nadir values, Median change from Baseline” value (CCR5-tropic HIV-1; 75 mg once daily) was −1.8 log10 copies/mL, the “Median days to nadir” value (CCR5-tropic HIV-1; 75 mg once daily) was 10.0 days and the “HIV-1 RNA, LS mean (SEM) change” value (CCR5-tropic HIV-1; 75 mg once daily) was −1.46 (0.15) log10 copies/mL. For the same compound, the “HIV-1 RNA, Median change from Baseline” value (CCR5-tropic HIV-1; 75 mg once daily) was −1.6 log10 copies/mL, the “HIV-1 RNA, Baseline LS mean (SEM)” value (CCR5-tropic HIV-1; 150 mg cohort, Baseline) was 4.10 (0.19) log10 copies/mL and the “subjects who achieved HIV-1 RNA levels of <50 copies/mL” value (CCR5-tropic HIV-1; 150 mg dose group) was 2. For the same compound, the “subjects who achieved HIV-1 RNA levels <400 copies/mL” value (CCR5-tropic HIV-1; 150 mg dose group) was 3, the “HIV-1 RNA, Nadir values, Median change from Baseline” value (CCR5-tropic HIV-1; 150 mg once daily) was −1.7 log10 copies/mL and the “Median days to nadir” value (CCR5-tropic HIV-1; 150 mg once daily) was 11.0 days. For the same compound, the “HIV-1 RNA, LS mean (SEM) change” value (CCR5-tropic HIV-1; 150 mg once daily) was −1.42 (0.16) log10 copies/mL, the “HIV-1 RNA, Median change from Baseline” value (CCR5-tropic HIV-1; 150 mg once daily) was −1.5 log10 copies/mL and the “drug resistance testing (in words)” value (CCR5-tropic HIV-1; Baseline, Day 7, Day 40, all subjects with evaluable samples) was “remained fully susceptible”. The “MCP-1, Baseline Mean” value (MCP-1; 25 mg cohort) was 20.0 pg/mL, the “MCP-1, Baseline Median” value (MCP-1; 25 mg cohort) was 16.0 pg/mL and the “MCP-1, Change from Baseline to Day 10, Median” value (“MCP-1, Change from Baseline” for short) (MCP-1; 25 mg once daily) was “+25.0 pg/mL”. The “MCP-1, Day 10 Mean” value (MCP-1; 25 mg once daily) was 75.3 pg/mL, the “MCP-1, Day 10 Median” value (MCP-1; 25 mg once daily) was 39.0 pg/mL and the “MCP-1, Baseline Mean” value (MCP-1; 50 mg cohort) was 12.6 pg/mL. For the same compound, the “MCP-1, Baseline Median” value (MCP-1; 50 mg cohort) was 6.0 pg/mL, the “MCP-1, Change from Baseline” value (MCP-1; 50 mg once daily) was “+56.0 pg/mL” and the “MCP-1, Day 10 Mean” value (MCP-1; 50 mg once daily) was 101.3 pg/mL. The “MCP-1, Day 10 Median” value (MCP-1; 50 mg once daily) was 65.0 pg/mL, the “MCP-1, Baseline Mean” value (MCP-1; 75 mg cohort) was 26.6 pg/mL and the “MCP-1, Baseline Median” value (MCP-1; 75 mg cohort) was 8.0 pg/mL. The “MCP-1, Change from Baseline” value (MCP-1; 75 mg once daily) was “+36.0 pg/mL”, the “MCP-1, Day 10 Mean” value (MCP-1; 75 mg once daily) was 59.1 pg/mL and the “MCP-1, Day 10 Median” value (MCP-1; 75 mg once daily) was 43.5 pg/mL. For the same compound, the “MCP-1, Baseline Mean” value (MCP-1; 150 mg cohort) was 31.6 pg/mL, the “MCP-1, Baseline Median” value (MCP-1; 150 mg cohort) was 19.5 pg/mL and the “MCP-1, Change from Baseline” value (MCP-1; 150 mg once daily) was “+322.0 pg/mL”. The “MCP-1, Day 10 Mean” value (MCP-1; 150 mg once daily) was 372.0 pg/mL, the “MCP-1, Day 10 Median” value (MCP-1; 150 mg once daily) was 368.0 pg/mL and the “effect on hs-CRP or IL-6 levels (in words)” value (MCP-1; 10-day study) was “no effect”. The “treatment-emergent AE: diarrhea” value [1] was 16.7%, the “treatment-emergent AE: fatigue” value [1] was 11.0% and the “treatment-emergent AE: headache” value [1] was 14.8%. The “treatment-emergent AE: nausea” value [1] was 18.5%, the “subjects with mild AEs” value [1, 2] was 80% and the “subjects with moderate AEs” value [1, 2] was 17%. The “tolerability (in words)” value ([1]; doses between 25 mg and 150 mg) was “generally well tolerated”, the “HIV-1 RNA ≧50 but <400 copies/mL” value (HIV-1; Week 24, CVC 100 mg arm) was “(5%)^d” and the “HIV-1 RNA ≧400 copies/mL” value (HIV-1; Week 24, CVC 200 mg arm) was “(7%)”. For the same compound, the “virologic non-response, subgroup with high baseline viral load (≧100,000 copies/mL)” value (HIV-1; Week 48, CVC 100 mg) was 20%, the “Treatment difference from EFV arm” value (HIV-1; Week 48, CVC 100 mg arm) was 18% and the “virologic non-response, subgroup with high baseline viral load (≧100,000 copies/mL)” value (HIV-1; Week 48, CVC 200 mg) was 21%. The “Discontinued study due to AE or death” value (HIV-1; Week 48, CVC 200 mg arm) was “(2%)”, the “Treatment difference from EFV arm” value (HIV-1; Week 48, CVC 200 mg arm) was 16% and the “Week 48 non-response, CVC-treated Black or African American subjects” value (HIV-1; Week 48, both CVC arms) was 8-15%.
